The results in this text go back to patent publication US20250144247A1, “FORMULATIONS TO ENHANCE THE DELIVERY OF GENE THERAPY VECTORS” (priority 2023, published 2025).

This assay deals with human airway epithelial cells (HAE). The assay can be described thus: Transepithelial electrical resistance (TEER) of HAE after apical reagent. As to conditions: apical 5 minutes; LPC 0.1%, EGTA 250 mM, doxorubicin 5 μM, NaCl 3.6%, Infasurf 35 mg/ml. Type of assay: cell-based. On the procedure: The University of Iowa In Vitro Models and Cell Culture Core cultured and maintained human airway epithelial cells (HAE) as previously described (33). Briefly, following enzymatic disassociation of trachea and bronchus epithelia, the cells were seeded onto collagen-coated, polycarbonate transwell inserts (0.4 μm pore size; surface area=0.33 cm^2; Corning Costar, Cambridge, MA). HAE were submerged in Ultroser G (USG) medium for 24 hours (37° C. and 5% CO2) at which point the apical media is removed to encourage polarization and differentiation at an air-liquid interface. Transepithelial electrical resistance was measured using an Ohmmeter […]
Disrupting the epithelial tight junctions allows Ad5-based viral vectors access to their basolaterally localized coxsackie and adenovirus receptor (CXADR) (12). Unless otherwise specified, these studies use the Ad5 serotype. […] First, reagents were applied to the apical surface of HAE for 5 minutes and then TEER was measured using an ohmmeter. […] In separate cultures, Ad-GFP (MOI=250) in 50 μl of DMEM combined 1:1 with the test reagents was applied to the apical surface for 2 hours. 5 days post-treatment, cells were imaged by fluorescence microscopy.

As for `[Cl-].[Na+]` [NaCl, sodium chloride], the “transepithelial electrical resistance (TEER)” value was “decreased TEER”.
